In patent US7521528B2, “Conformationally constrained parathyroid hormone (PTH) analogs with lactam bridges” (The General Hospital Corporation, priority 2003, dated 2009):

Assays:
[1] = target: T1, P1R-DelNt (truncated human P1R deleted for residues 24-181) (Homo sapiens, UniProt Q03431); assay: cAMP stimulation in COS-7 cells transiently transfected with P1R-DelNt; type: cell-based; conditions: for Emax: COS-7, at 1×10^−5, percent of maximum response of PTH(1-34) on P1R-WT
T1 construct: expressed in transfected cells; host or cells: COS-7 (transient transfection, FuGENE 6)
T1 sequence (Q03431 with tags, fused parts or gaps limits assumed): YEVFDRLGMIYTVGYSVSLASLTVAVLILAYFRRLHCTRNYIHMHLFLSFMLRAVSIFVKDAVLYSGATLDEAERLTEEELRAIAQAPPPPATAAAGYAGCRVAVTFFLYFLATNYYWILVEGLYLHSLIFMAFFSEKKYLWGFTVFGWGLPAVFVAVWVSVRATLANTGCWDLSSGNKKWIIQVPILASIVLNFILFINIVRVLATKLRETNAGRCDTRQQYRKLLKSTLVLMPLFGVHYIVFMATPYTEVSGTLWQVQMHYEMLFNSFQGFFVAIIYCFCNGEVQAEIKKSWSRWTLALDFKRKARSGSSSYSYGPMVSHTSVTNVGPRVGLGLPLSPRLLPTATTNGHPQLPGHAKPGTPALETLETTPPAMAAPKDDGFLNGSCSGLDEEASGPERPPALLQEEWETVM
Procedure: (§1) Cell Culture. The cell line HKRK-B28 (Takasu, H., et al., J. Bone Miner. Res. 14:11-20 (1999)) was derived from the porcine kidney cell line, LLC-PK1 by stable transfection with plasmid DNA encoding the full-length P1R and expresses ˜280,000 receptors per cell. These cells, as well as COS-7 cells and SaOS-2-B10 cells, were cultured at […] in T-75 flasks ([…]) in Dulbecco's modified Eagle's medium (DMEM) supplemented with fetal bovine serum (10%), penicillin G (20 units/ml), streptomycin sulfate (20 μg/ml) and amphotericin B (0.05 μg/ml) in a humidified atmosphere containing 5% CO2. Stock solutions of EGTA/trypsin and antibiotics were from GIBCO; fetal bovine serum was from Hyclone Laboratories (Logan, Utah). COS-7 cells sub-cultured in 24-well plates were transfected with plasmid DNA (200 ng per well) encoding the wild-type human P1R or truncated human P1R deleted for residues (24-181) (Shimizu, M., et al., J. Biol. Chem. 275:21836-21843 (2000)) that was purified by cesium chloride/ethidium bromide density gradient centrifugation, and FuGENE 6 transfection reagent (Roche Indianapolis Ind.) according to the manufacturer's recommended procedure. All cells, in 24-well plates, were treated with fresh media and shifted to 33° C. for 12 to 24 h prior to assay.
(§2) cAMP Stimulation. Stimulation of cells with peptide analogs was performed in 24-well plates. Cells were rinsed with 0.5 mL of binding buffer (50 mM Tris-HCl, 100 mM NaCl, 5 mM KCl, 2 mM CaCl2, 5% heat-inactivated horse serum, 0.5% fetal bovine serum, adjusted to pH 7.5 with HCl) and treated with 200 μL of cAMP assay buffer (Delbecco's modified Eagle's medium containing 2 mM 3-isobutyl-1-methylxanthine, 1 mg/mL bovine serum albumin, 35 mM Hepes-NaOH, pH 7.4) and 100 μL of binding buffer containing varying amounts of peptide analog (final volume=300 μL). The medium was removed after incubation for 30 to 60 minutes at room temperature, and the cells were frozen on dry ice, lysed with 0.5 mL 50 mM HCl, and refrozen ([…]). The cAMP content of the diluted lysate was determined by radioimmunoassay. The EC50 response values were calculated using nonlinear regression (see below).
Data Calculation. Calculations were performed using Microsoft® Excel. […] Differences between paired data sets were statistically evaluated using a one-tailed Student's t-test, assuming unequal variances for the two sets.
(§3) The peptide PTH(1-34)([Tyr^34]hPTH(1-34)NH2)(SEQ. ID. NO. 11) and analogs containing the indicated residues at positions 6 and/or 10 were evaluated for the capacity to stimulate cAMP accumulation in COS-7 cells transiently transfected with either the wild-type P1R(P1R-WT) or P1R-DelNt. […]

[2] = target: T2, recombinant full-length P1R (Homo sapiens, UniProt Q03431); assay: cAMP stimulation in HKRK-B28 cells; type: cell-based; conditions: at 1×10^−6 M, percent of maximum response of PTH(1-34)
T2 construct: expressed in transfected cells
T2 sequence (Q03431 27-593): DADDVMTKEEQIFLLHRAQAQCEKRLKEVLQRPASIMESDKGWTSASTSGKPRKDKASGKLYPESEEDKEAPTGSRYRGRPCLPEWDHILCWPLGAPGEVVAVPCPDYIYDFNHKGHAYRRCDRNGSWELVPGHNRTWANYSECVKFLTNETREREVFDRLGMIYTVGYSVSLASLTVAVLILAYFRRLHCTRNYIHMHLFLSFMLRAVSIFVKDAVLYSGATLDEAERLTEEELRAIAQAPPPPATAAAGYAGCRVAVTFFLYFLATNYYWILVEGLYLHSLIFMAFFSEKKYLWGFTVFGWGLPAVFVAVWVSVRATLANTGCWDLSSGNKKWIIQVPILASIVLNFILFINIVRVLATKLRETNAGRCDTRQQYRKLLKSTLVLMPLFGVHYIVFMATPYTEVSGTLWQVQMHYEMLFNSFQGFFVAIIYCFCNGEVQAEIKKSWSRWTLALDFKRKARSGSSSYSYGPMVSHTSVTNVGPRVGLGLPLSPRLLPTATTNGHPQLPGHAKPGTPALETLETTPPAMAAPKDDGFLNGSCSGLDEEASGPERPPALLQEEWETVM
Procedure: as §1, §2
Data Calculation. Calculations were performed using Microsoft® Excel. Nonlinear regression analyses of binding and cAMP dose-response data were performed using the four-parameter equation: yp=Min+[(Max−Min)/(1+(IC50/x)^slope)]. The Excel Solver function was utilized for parameter optimization, as described previously (Carter, P. H., et al., Endocrinology 140: 4972-4981 (1999); Bowen, W. P., and Jerman, J. C., Trends in Pharmacol. Sci. 16: 413-417 (1995)). Differences between paired data sets were statistically evaluated using a one-tailed Student's t-test, assuming unequal variances for the two sets.
The effects of installing a direct covalent linkage between the side chains of the residues at positions 6 and 10 on PTH analog function were also assessed. To do this, paired Glu^6/Lys^10 or Lys^6/Glu^10 substitutions were introduced into an otherwise non-constrained PTH(1-14) analog scaffold AlaValAlaGluIleGln LeuMetHisGlnHarAlaLysTrp-amide (SEQ. ID. NO. 11) and formed an amide bond between the carboxylate side chain group of the introduced glutamate residue and the amino side chain group of the introduced lysine residue. For controls, a portion of each Glu/Lys- or Lys/Glu-substituted PTH(1-14) analog was preserved in the non-bridged form. The four peptides: [Glu^6, Lys^10]PTH(1-14)(linear)(SEQ. ID. NO. 24), [(Glu^6,Lys^10)lac.]PTH(1-14) cyclized via a 6-10 lactam bridge)(SEQ. ID. NO. 3), [Lys^6, Glu^10]PTH(1-14)(SEQ. ID. NO. 25), and [(Lys^6, Glu^10)lac.]PTH(1-14)(SEQ. ID. NO. 26) were first compared at a single dose of 10 μM for the capacity to stimulate cAMP formulation in HKRK-B28 cells, an LLC-PK1-derived cell line that expresses the recombinant full-length P1R at a moderate level (˜280,000 receptors per cell). […]

wild-type human P1R = target: T3, wild-type human P1R (Homo sapiens, UniProt Q03431); assay: cAMP stimulation in COS-7 cells transiently transfected with P1R-WT; type: cell-based; conditions: at 1×10^−6M, percent of maximum response of PTH(1-34) on P1R-WT
T3 construct: expressed in transfected cells; host or cells: COS-7 (transient transfection, FuGENE 6)
T3 sequence (Q03431 27-593): T2 sequence (Q03431 27-593)
Procedure: as §1
cAMP Stimulation. Stimulation of cells with peptide analogs was performed in 24-well plates. […] The cAMP content of the diluted lysate was determined by radioimmunoassay. The EC50 response values were calculated using nonlinear regression (see below).
Data Calculation. […] Differences between paired data sets were statistically evaluated using a one-tailed Student's t-test, assuming unequal variances for the two sets.
as §3

P1R = target: T4, P1R (Homo sapiens, UniProt Q03431); conditions: cAMP-signaling, literature (Luck et al. 1999); cited from earlier work
T4 construct: expressed in transfected cells
T4 sequence (Q03431 27-593): T2 sequence (Q03431 27-593)

Substance	Emax [1] [%]	cAMP-signaling potency (in words) ([1]; COS-7 cells expressing P1R-DelNt)	Emax at 1 µM [2] [%]	Emax at 1 µM (wild-type human P1R) [%]	EC50 (P1R) [nM]
H-SVSEIALMHALGKHLNSMERVEWLRKKLQDVHNY-NH2 [[Ala^6,10]PTH(1-34)]	44 ± 2	as potent as PTH(1-34)	107 ± 8	121 ± 7	–
H-SVSEIALMHNLGKHLNSMERVEWLRKKLQDVHNY-NH2 [[Ala^6]PTH(1-34)]	4.5 ± 0.9	–	105 ± 10	104 ± 2	–
H-SVSEIQLMHALGKHLNSMERVEWLRKKLQDVHNY-NH2 [[Ala^10]PTH(1-34)]	46 ± 2	–	106 ± 7	96 ± 4	–
PTH(1-34): first 34 amino acids of PTH, literature data	–	–	–	–	~2
